Measurements from ChEMBL document CHEMBL5550220, “Discovering New Metallo-Deubiquitinase CSN5 Inhibitors by a Non-Catalytic Activity Assay Platform” (J Med Chem, 2024).
Calls of active or inactive are those of the source. No cut-off for these calls is given here.

Key:
[1] = target: T1, COP9 signalosome complex subunit 5 (Homo sapiens, UniProt Q92905); assay: (§1) Inhibition of N-terminal His6-tagged CSN5 (2 to 257 residues) (unknown origin) transfected in Transetta cells preincubated for 20 mins followed by N-(2-(3-(3',6'-dihydroxy-3-oxo-3H-spiro[isobenzofuran-1,9'-xanthen]-5-yl)thioureido)ethyl)-3-(2-(5-methyl-[1,1'-biphenyl]-2-yl)-1H-pyrrolo[2,3-b]pyridin-3-yl)propanamide probe addition and measured after 1 hr by fluorescence polarization assay
Target sequence in this assay (Q92905 whole entry, the tested form may be a part, one chain of several): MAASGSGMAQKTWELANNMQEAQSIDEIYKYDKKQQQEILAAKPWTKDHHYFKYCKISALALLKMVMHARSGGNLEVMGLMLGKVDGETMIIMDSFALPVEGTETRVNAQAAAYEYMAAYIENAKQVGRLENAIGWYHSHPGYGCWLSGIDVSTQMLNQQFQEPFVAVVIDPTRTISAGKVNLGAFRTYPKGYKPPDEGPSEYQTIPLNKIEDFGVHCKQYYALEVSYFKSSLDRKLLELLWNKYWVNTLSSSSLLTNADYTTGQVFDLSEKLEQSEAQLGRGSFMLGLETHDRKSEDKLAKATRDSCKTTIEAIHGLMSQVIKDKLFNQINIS

[2] = target: T1, COP9 signalosome complex subunit 5; assay: as §1, with “based microplate reader” for “polarization”; type: cell-based
Target sequence in this assay (Q92905 whole entry, the tested form may be a part, one chain of several): as above

[3] = tested on: HCT-116; assay: Antiproliferative activity against human HCT-116 cells assessed as inhibition of cell proliferation measured after 3 days by MTT assay; type: functional, cell-based; details: HCT-116, 72 h
[4] = tested on: HepG2; assay: Antiproliferative activity against human HepG2 cells assessed as inhibition of cell proliferation measured after 3 days by MTT assay; type: functional, cell-based; details: HepG2, 72 h
[5] = tested on: A-375; assay: Antiproliferative activity against human A-375 cells assessed as inhibition of cell proliferation measured after 3 days by MTT assay; type: functional, cell-based; details: A-375, 72 h
[6] = target: T1, COP9 signalosome complex subunit 5; assay: Binding affinity to N-terminal His6-tagged CSN5 (2 to 257 residues) (unknown origin) transfected in Transetta cells assessed as decrease in tryptophan fluorescence intensity incubated for 10 mins by fluorescence quenching based microplate reader analysis; type: cell-based; details: dose 0-100 µM
Target sequence in this assay (Q92905 2-334 limits assumed, one chain of several): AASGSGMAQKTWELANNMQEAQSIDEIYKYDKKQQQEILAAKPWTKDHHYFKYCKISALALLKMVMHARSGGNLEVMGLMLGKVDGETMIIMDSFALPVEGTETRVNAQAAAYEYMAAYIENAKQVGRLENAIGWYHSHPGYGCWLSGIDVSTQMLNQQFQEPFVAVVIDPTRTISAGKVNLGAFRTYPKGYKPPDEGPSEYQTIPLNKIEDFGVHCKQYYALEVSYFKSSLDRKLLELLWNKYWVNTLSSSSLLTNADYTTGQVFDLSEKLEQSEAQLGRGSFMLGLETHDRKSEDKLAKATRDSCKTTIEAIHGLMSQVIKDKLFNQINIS

[7] = target: T1, COP9 signalosome complex subunit 5; assay: Inhibition of CSN5 in human HCT-116 cells assessed as increase in neddylation of cullin1 at 3 uM by Western blot analysis; type: cell-based
Target sequence in this assay (Q92905 2-334 limits assumed, one chain of several): as above

[8] = target: T1, COP9 signalosome complex subunit 5; assay: Inhibition of CSN5 in human HepG2 cells assessed as increase in neddylation of cullin1 at 3 uM by Western blot analysis; type: cell-based
Target sequence in this assay (Q92905 2-334 limits assumed, one chain of several): as above

[9] = tested on: HCT-116; assay: Effect on CSN5 protein level in human HCT-116 cells at 3 uM by Western blot analysis; type: functional, cell-based
[10] = tested on: HepG2; assay: Effect on CSN5 protein level in human HepG2 cells at 3 uM by Western blot analysis; type: functional, cell-based
[11] = tested on: HCT-116; assay: Upregulation of PD-L1 level in human HCT-116 cells at 3 uM by Western blot analysis; type: functional, cell-based
[12] = target: T1, COP9 signalosome complex subunit 5; assay: Inhibition of N-terminal His6-tagged CSN5 (2 to 257 residues) (unknown origin) transfected in Transetta cells preincubated with N-(2-(3-(3',6'-dihydroxy-3-oxo-3H-spiro[isobenzofuran-1,9'-xanthen]-5-yl)thioureido)ethyl)-3-(2-(5-methyl-[1,1'-biphenyl]-2-yl)-1H-pyrrolo[2,3-b]pyridin-3-yl)propanamide probe followed by compound addition by fluorescence based microplate reader assay; type: cell-based
Target sequence in this assay (Q92905 2-334 limits assumed, one chain of several): as above

[13] = tested on: MDA-MB-231; assay: Antiproliferative activity against human MDA-MB-231 cells assessed as inhibition of cell proliferation measured after 3 days by MTT assay; type: functional, cell-based; details: MDA-MB-231, 72 h
[14] = target: T1, COP9 signalosome complex subunit 5; assay: Inhibition of CSN5 in human HCT-116 cells assessed as increase in NEDD8-Cul1 level by Western blot analysis; type: cell-based; details: dose 3-30 µM
Target sequence in this assay (Q92905 2-334 limits assumed, one chain of several): as above

[15] = target: T1, COP9 signalosome complex subunit 5; assay: Inhibition of CSN5 in human MDA-MB-231 cells assessed as increase in NEDD8-Cul1 level by Western blot analysis; type: cell-based; details: dose 3-30 µM
Target sequence in this assay (Q92905 2-334 limits assumed, one chain of several): as above

[16] = tested on: HCT-116; assay: Downregulation of PD-L1 protein expression in human HCT-116 cells at 30 uM by Western blot analysis; type: functional, cell-based
[17] = tested on: MDA-MB-231; assay: Downregulation of PD-L1 protein expression in human MDA-MB-231 cells at 3 to 30 uM by Western blot analysis; type: functional, cell-based; details: dose 3-30 µM
[18] = tested on: HCT-116; assay: Upregulation of PD-L1 protein expression in human HCT-116 cells at 30 uM by Western blot analysis; type: functional, cell-based
[19] = tested on: HCT-116; assay: Upregulation of PD-L1 level in human HCT-116 cells at 30 uM by Western blot analysis; type: functional, cell-based
[20] = target: T1, COP9 signalosome complex subunit 5; details: dose 50.0 µM
Description: Thermal stabilization of N-terminal His6-tagged CSN5 (2 to 257 residues) (unknown origin) transfected in Transetta cells assessed as change in melting temperature at 50 uM by SYPRO orange dye based thermal shift assay

[21] = target: T1, COP9 signalosome complex subunit 5; assay: Binding affinity to N-terminal His6-tagged Zn-II deficient CSN5 (2 to 257 residues) (unknown origin) transfected in Transetta cells assessed as tryptophan fluorescence change at 0 to 100 uM incubated for 10 mins by fluorescence quenching based microplate reader analysis; type: cell-based; details: dose 0-100 µM
[22] = target: T1, COP9 signalosome complex subunit 5; assay: Inhibition of CSN5 in human HepG2 cells assessed as increase in neddylation of cullin1 by Western blot analysis; type: cell-based; details: dose 0.3-3 µM
[23] = tested on: HepG2; assay: Effect on PD-L1 level in human HepG2 cells at 0.3 to 3 uM by Western blot analysis; type: functional, cell-based; details: dose 0.3-3 µM

CC(C)=CC[C@@H](OC(=O)C(C)C)C1=CC(=O)c2c(O)ccc(O)c2C1=O [ISOBUTYLSHIKONIN]
IC50 [1]: 0.6 µM
IC50 [2]: 1.17 µM
IC50 [3]: 1.73 µM
IC50 [4]: 8.73 µM
IC50 [5]: 1.71 µM

CC(C)(C)c1ccc(Cc2sc(N)nc2C(=O)O)cc1
IC50 [1]: 92.1 µM
IC50 [2]: 83.2 µM

CC(C)Cc1sc(N)nc1C(=O)O
IC50 [1]: > 300 µM
IC50 [2]: > 300 µM

CC(C)=CCCC1=CC(=O)c2c(O)ccc(O)c2C1=O [DEOXYSHIKONIN]
IC50 [1]: 2.51 µM
IC50 [2]: 4.81 µM
Activity [6]: Dose-Dependent Effect
IC50 [3]: 15.5 µM
IC50 [4]: 10.5 µM
IC50 [5]: 6.83 µM
inhibition [7]: Active
inhibition [8]: Active
Activity [9]: inactive
Activity [10]: inactive
Activity [11]: inactive

O=C1C=CC(=O)c2c(O)ccc(O)c21 [NAPHTHAZALIN]
IC50 [1]: 0.17 µM
IC50 [2]: 0.91 µM
IC50 [3]: 1.04 µM
IC50 [4]: 4.97 µM
IC50 [5]: 8.85 µM

COc1ccc2cc([C@@H](C)c3sc(N)nc3C(=O)O)ccc2c1
IC50 [1]: 26.9 µM
IC50 [2]: 16.8 µM
Activity [6]: Dose-Dependent Effect
inhibition [12]: Active
IC50 [13]: 68.3 µM
IC50 [3]: 40.9 µM
IC50 [4]: 52.1 µM
inhibition [14]: Dose-Dependent Effect
inhibition [15]: Dose-Dependent Effect
Activity [16]: Active
Activity [17]: Active

CC(C)(C)c1ccc(CCc2sc(N)nc2C(=O)O)cc1
IC50 [1]: 19.1 µM
IC50 [2]: 29.8 µM
IC50 [13]: 52.5 µM
IC50 [3]: 52 µM
IC50 [4]: > 100 µM

Cc1ccc(-c2[nH]c3ncccc3c2CCC(=O)N2CCOC[C@H]2c2nc3ccccc3[nH]2)c(-c2ccccc2)c1
Activity [18]: Active
Activity [19]: Active

CC(C)c1ccc(Cc2sc(N)nc2C(=O)O)cc1
IC50 [1]: 111 µM
IC50 [2]: 80.1 µM

Nc1nc(C(=O)O)c(CCc2ccc(Br)cc2)s1
IC50 [1]: 65.5 µM
IC50 [2]: 64.6 µM
IC50 [13]: 34.1 µM
IC50 [3]: 55.6 µM
IC50 [4]: > 100 µM

Nc1nc(C(=O)O)c(CCc2cccc3ccccc23)s1
IC50 [1]: 30.3 µM
IC50 [2]: 28.3 µM
IC50 [13]: 22.4 µM
IC50 [3]: 17.7 µM
IC50 [4]: 30.8 µM

CC(C)c1ccc(CC(C)c2sc(N)nc2C(=O)O)cc1 (stereo unspecified)
IC50 [1]: 13.5 µM
IC50 [2]: 14.9 µM
Activity [6]: Dose-Dependent Effect
IC50 [13]: 14 µM
IC50 [3]: 16.3 µM
IC50 [4]: 37.3 µM

CC(Cc1ccc(C(C)(C)C)cc1)c1sc(N)nc1C(=O)O (stereo unspecified)
IC50 [1]: 12.6 µM
IC50 [2]: 19 µM
Activity [6]: Dose-Dependent Effect
inhibition [12]: Active
IC50 [13]: 22.8 µM
IC50 [3]: 24.1 µM
IC50 [4]: 39.1 µM
inhibition [14]: Dose-Dependent Effect
inhibition [15]: Dose-Dependent Effect

CCCCc1sc(N)nc1C(=O)O
IC50 [1]: > 300 µM
IC50 [2]: > 300 µM

Cc1ccc(CCc2sc(N)nc2C(=O)O)o1
IC50 [1]: 188 µM
IC50 [2]: 163 µM

CC(C)=CC[C@H](O)C1=CC(=O)c2c(O)ccc(O)c2C1=O [ALKANNIN]
IC50 [1]: 0.27 µM
IC50 [2]: 0.8 µM
IC50 [3]: 0.83 µM
IC50 [4]: 4.86 µM
IC50 [5]: 1.42 µM
ΔTm [20]: 1 °C

CC(=O)O[C@H](CC=C(C)C)C1=CC(=O)c2c(O)ccc(O)c2C1=O [ACETYLSHIKONIN]
IC50 [1]: 0.43 µM
IC50 [2]: 1.07 µM
IC50 [3]: 3.56 µM
IC50 [4]: 6.48 µM
IC50 [5]: 1.91 µM

Nc1nc(C(=O)O)c(CCc2ccc(Cl)cc2Cl)s1
IC50 [1]: 41.7 µM
IC50 [2]: 41.7 µM
IC50 [13]: > 100 µM
IC50 [3]: 56.5 µM
IC50 [4]: > 100 µM

CC(C)=CC[C@@H](O)C1=CC(=O)c2c(O)ccc(O)c2C1=O [SHIKONIN]
IC50 [1]: 0.19 µM
IC50 [2]: 0.41 µM
Activity [6]: Dose-Dependent Effect
inhibition [12]: Active
IC50 [3]: 0.52 µM
IC50 [4]: 2.96 µM
Activity [21]: inactive
IC50 [5]: 0.7 µM
inhibition [7]: Active
inhibition [8]: Active
Activity [9]: inactive
Activity [10]: inactive
Activity [11]: Active
inhibition [22]: Dose-Dependent Effect
Activity [23]: inactive
ΔTm [20]: 1 °C
